Like-named read-outs stand apart in the source and are kept apart here. Marks after values point to notes of the source that are not given here.
Experiments:
cisplatin-induced emesis [1] = assay: Duration of action in cisplatin-treated dogs; type: in vivo
Procedure: Mean numbers of episodes were computed and the statistical significance of differences between treatment groups were determined with Dunnett's t test. Solutions of palonosetron and comparator drugs (ondansetron and granisetron) were prepared in distilled water. Vehicle control groups received distilled water.

cisplatin-induced emesis [2] = assay: Reversal of cisplatin-induced emesis, intravenous antiemetic one hour after cisplatin; type: in vivo, dogs; details: for Emetic Episodes (mean ± SD): observed five hours
Procedure: (§1) The antiemetic effects of intravenously and orally administered palonosetron were assessed in male and female dogs (sexes combined). Antineoplastic agents employed in these experiments included cisplatin (3 mg/kg)), dacarbazine (30 mg/kg), mechlorethamine (0.4 mg/kg) and actinomycin D (0.15 mg/kg). […] Mean numbers of episodes were computed and the statistical significance of differences between treatment groups were determined with Dunnett's t test. Solutions of palonosetron and comparator drugs (ondansetron and granisetron) were prepared in distilled water. Vehicle control groups received distilled water. In a different study, palonosetron and ondansetron were assessed for their relative abilities to reverse cisplatin-induced emesis. In these experiments dogs received intravenous injections of palonosetron, ondansetron, or vehicle one hour after the intravenous administration of 3.0 mg/kg cisplatin. Each animal was observed continuously for five hours following cisplatin administration for the number of emetic episodes.

cisplatin-induced emesis [3] = assay: Intravenous palonosetron vs ondansetron in cisplatin-treated dogs; type: in vivo; details: 0.1 mg/kg intravenous; five-hour period following cisplatin 3.0 mg/kg
Procedure: The antiemetic effects of intravenously and orally administered palonosetron were assessed in male and female dogs (sexes combined). Antineoplastic agents employed in these experiments included cisplatin (3 mg/kg)), dacarbazine (30 mg/kg), mechlorethamine (0.4 mg/kg) and actinomycin D (0.15 mg/kg). […] Mean numbers of episodes were computed and the statistical significance of differences between treatment groups were determined with Dunnett's t test. Solutions of palonosetron and comparator drugs (ondansetron and granisetron) were prepared in distilled water. Vehicle control groups received distilled water. The therapeutic effects of intravenously and orally administered palonosetron were compared to those of ondansetron and vehicle in cisplatin-treated dogs.

[4] = test system: Highly Emetogenic Chemotherapy-Induced Nausea and Vomiting; assay: Phase II dose-ranging trial, single I.V. palonosetron, efficacy; details: for % CR(Day 5): 5-day complete response; for % CR(24 hr): complete response (no emesis, no rescue)
Procedure: A randomized, double-blind, multicenter, dose-ranging Phase II trial was performed to identify the dose response relationship among single I.V. doses of palonosetron. Patients receiving highly emetogenic chemotherapy including cyclophosphamide (>1100 mg/m2) and cisplatin (>70 mg/m2), commonly associated with delayed emesis, were assigned to one of five dose groups of a single I.V. administration of palonosetron. Palonosetron was administered alone (without dexamethasone) as a 30 second intravenous injection, 30 minutes prior to chemotherapy administration. The primary endpoint was 24-hour complete responses (no emesis, no rescue) (CR). Secondary endpoints included complete control (no emesis, no rescue, mild nausea) (CC) and 5-day CR.
161 patients (32 women, 129 men) participated.

[5] = test system: Mechlorethamine-Induced Emesis; type: in vivo, dogs; details: for Emetic Episodes (mean ± SD): 2 hours prior to mechlorethamine 0.4 mg/kg IV, observed 5 hours
[6] = Systemic exposure of palonosetron (plasma, HPLC-radioimmunoassay); type: in vivo, dogs; details: 100 to 1000 μg/kg
cisplatin-induced emesis [7] = assay: Anti-emetic effect, oral antiemetic one hour before cisplatin; type: in vivo, dogs; details: for Emetic Episodes (mean ± SD): observed five hours
Procedure: as §1, with “The observation of potency differential was further seen during an experiment in which oral dose-response relationships of” for “In a different study,”, “compared in cisplatin-treated dogs. Palonosetron, ondansetron” for “assessed for their relative abilities to reverse cisplatin-induced emesis. In these experiments dogs received intravenous injections of palonosetron, ondansetron,”, “vehicle control were administered by the oral route” for “vehicle”, “prior to” for “after”, “the” for “the intravenous”, “of” for “of 3.0 mg/kg”

[8] = test system: Actinomycin D-Induced Emesis; assay: Antagonism of actinomycin D-induced emesis; type: in vivo, dogs; details: for Emetic Episodes (mean ± SD): 2 hours prior to actinomycin D 0.15 mg/kg IV, observed 5 hours
[9] = test system: Dacarbazine-Induced Emesis; assay: Antagonism of dacarbazine-induced emesis; type: in vivo, dogs; details: for Emetic Episodes (mean ± SD): 2 hours prior to dacarbazine 30.0 mg/kg IV, observed 5 hours
cisplatin-induced emesis [10] = assay: Systemic exposure study: effects on cisplatin-induced emesis; type: in vivo, dogs; details: 30 minutes prior to cisplatin, oral, table title says intravenous
Procedure: An experiment was conducted to study the relationship between plasma concentration of palonosetron and protection of dogs against cisplatin-induced emesis. Groups of dogs received oral doses of palonosetron (0, 100, 316, or 1000 μg/kg) or vehicle control 30 minutes prior to the injection of cisplatin.

[11] = palonosetron 0.3-1 mcg/kg single I.V.
[12] = palonosetron 3 mcg/kg single I.V.
[13] = palonosetron 10 mcg/kg single I.V.
[14] = palonosetron 30 mcg/kg single I.V.
[15] = palonosetron 90 mcg/kg single I.V.
[16] = intravenous antiemetic 0.001 mg/kg
[17] = intravenous antiemetic 0.003 mg/kg
[18] = intravenous antiemetic 0.01 mg/kg
[19] = intravenous antiemetic 0.03 mg/kg
[20] = intravenous or oral route, stated for all three antineoplastic agents

Compound: Cl.O=C1c2cccc3c2[C@H](CCC3)CN1[C@@H]1CN2CCC1CC2 [Palonosetron, (3aS)-2,3,3a,4,5,6-Hexahydro-2-[(S)-1-Azabicyclo[2.2.2]oct-3-yl]2,3,3a,4,5,6-hexahydro-1-oxo-1Hbenz[de]isoquinoline hydrochloride]
- longest pretreatment time before cisplatin with antiemetic activity (cisplatin-induced emesis [1]; 0.1 mg/kg IV): 10 h
- Emetic Episodes (mean ± SD) (cisplatin-induced emesis [1]; 0.1 mg/kg IV, 1 hr pre-cisplatin 3.0 mg/kg IV): 1.33 ± 1.03^b
- Emetic Episodes (mean ± SD) (cisplatin-induced emesis [1]; 0.1 mg/kg IV, 2 hr pre-cisplatin 3.0 mg/kg IV): 2.50 ± 2.43^b
- Emetic Episodes (mean ± SD) (cisplatin-induced emesis [1]; 0.1 mg/kg IV, 4 hr pre-cisplatin 3.0 mg/kg IV): 0.33 ± 0.52^b
- Emetic Episodes (mean ± SD) (cisplatin-induced emesis [1]; 0.1 mg/kg IV, 6 hr pre-cisplatin 3.0 mg/kg IV): 5.83 ± 4.40^b
- Emetic Episodes (mean ± SD) (cisplatin-induced emesis [1]; 0.1 mg/kg IV, 8 hr pre-cisplatin 3.0 mg/kg IV): 9.50 ± 5.50^b
- Emetic Episodes (mean ± SD) (cisplatin-induced emesis [1]; 0.1 mg/kg IV, 10 hr pre-cisplatin 3.0 mg/kg IV): 9.83 ± 4.79^b
- Emetic Episodes (mean ± SD) (cisplatin-induced emesis [1]; 0.1 mg/kg IV, 12 hr pre-cisplatin 3.0 mg/kg IV): 13.17 ± 6.27
- protective effects, pretreatment time prior to cisplatin (cisplatin-induced emesis [1]; earlier experiment, 0.03 mg/kg, compared with ondansetron 0.3 mg/kg IV (as long as seven hours)): similarly effective
- Emetic Episodes (mean ± SD) (cisplatin-induced emesis [2]; intravenous dose 0.3 μg/kg one hour after cisplatin 3.0 mg/kg IV): 13.16 ± 6.11 ^
- Emetic Episodes (mean ± SD) (cisplatin-induced emesis [2]; intravenous dose 1.0 μg/kg one hour after cisplatin 3.0 mg/kg IV): 7.16 ± 4.26^a
- Emetic Episodes (mean ± SD) (cisplatin-induced emesis [2]; intravenous dose 3.0 μg/kg one hour after cisplatin 3.0 mg/kg IV): 4.33 ± 4.03^b
- Emetic Episodes (mean ± SD) (cisplatin-induced emesis [2]; intravenous dose 10.0 μg/kg one hour after cisplatin 3.0 mg/kg IV): 4.50 ± 5.24^b
- Emetic Episodes (mean ± SD) (cisplatin-induced emesis [2]; intravenous dose 30.0 μg/kg one hour after cisplatin 3.0 mg/kg IV): 1.33 ± 1.21^b
- Emetic Episodes (mean ± SD) (cisplatin-induced emesis [2]; intravenous dose 100.0 μg/kg one hour after cisplatin 3.0 mg/kg IV): 1.67 ± 1.83^b
- Emetic Episodes (mean ± SD) (cisplatin-induced emesis [2]; intravenous dose 300.0 μg/kg one hour after cisplatin 3.0 mg/kg IV): 3.33 ± 3.01^b
- statistically minimally effective dose level (cisplatin-induced emesis [2]; intravenous, one hour after cisplatin): 1.0 µg/kg
- mean number of emetic episodes (cisplatin-induced emesis [3]): 2.20
- % CR(Day 5) [4, 11]: 17%
- % CR(24 hr) [4, 11]: 24%
- % CR(Day 5) [4, 12]: 17%
- % CR(24 hr) [4, 12]: 46%
- % CR(Day 5) [4, 13]: 32%
- % CR(24 hr) [4, 13]: 40%
- % CR(Day 5) [4, 14]: 33%
- % CR(24 hr) [4, 14]: 50* %
- % CR(Day 5) [4, 15]: 20%
- % CR(24 hr) [4, 15]: 46%
- Emetic Episodes (mean ± SD) [5, 16]: 7.67 ± 5.05
- Emetic Episodes (mean ± SD) [5, 17]: 6.00 ± 4.29
- Emetic Episodes (mean ± SD) [5, 18]: 3.00 ± 3.52^d
- Emetic Episodes (mean ± SD) [5, 19]: 0.17 ± 0.41^d
- potency relative to ondansetron [5, 20]: at least 10 times
- Emetic Episodes (mean ± SD) ([5]; oral antiemetic 0.003 mg/kg): 4.50 ± 3.51^c
- Emetic Episodes (mean ± SD) ([5]; oral antiemetic 0.01 mg/kg): 2.83 ± 1.94^d
- Emetic Episodes (mean ± SD) ([5]; oral antiemetic 0.03 mg/kg): 0.33 ± 0.82^d
- Emetic Episodes (mean ± SD) ([5]; oral antiemetic 0.1 mg/kg): 0.00 ± 0.00^d
- dose proportionality of systemic exposure (AUC0-4hr) [6]: approximately dose-proportional
- Emetic Episodes (mean ± SD) (cisplatin-induced emesis [7]; oral dose 0.3 μg/kg one hour before cisplatin): 12.16 ± 1.94
- Emetic Episodes (mean ± SD) (cisplatin-induced emesis [7]; oral dose 1.0 μg/kg one hour before cisplatin): 12.83 ± 4.70
- Emetic Episodes (mean ± SD) (cisplatin-induced emesis [7]; oral dose 3.0 μg/kg one hour before cisplatin): 16.16 ± 5.11
- Emetic Episodes (mean ± SD) (cisplatin-induced emesis [7]; oral dose 10.0 μg/kg one hour before cisplatin): 4.00 ± 3.79^a
- Emetic Episodes (mean ± SD) (cisplatin-induced emesis [7]; oral dose 30.0 μg/kg one hour before cisplatin): 2.66 ± 1.75^a
- Emetic Episodes (mean ± SD) (cisplatin-induced emesis [7]; oral dose 100.0 μg/kg one hour before cisplatin): 0.00 ± 0.00^a
- Emetic Episodes (mean ± SD) (cisplatin-induced emesis [7]; oral dose 300.0 μg/kg one hour before cisplatin): 1.67 ± 2.04^a
- minimally effective dose (significant reduction in episodes) (cisplatin-induced emesis [7]; oral, one hour before cisplatin): 10 µg/kg
- Emetic Episodes (mean ± SD) [8, 16]: 10.00 ± 0.54^c
- Emetic Episodes (mean ± SD) [8, 17]: 10.83 ± 2.04 ^
- Emetic Episodes (mean ± SD) [8, 18]: 7.17 ± 3.06^d
- Emetic Episodes (mean ± SD) [8, 19]: 5.17 ± 4.45^d
- potency relative to ondansetron [8, 20]: at least 10 times
- Emetic Episodes (mean ± SD) ([8]; oral antiemetic 0.003 mg/kg): 5.83 ± 1.47^d
- Emetic Episodes (mean ± SD) ([8]; oral antiemetic 0.01 mg/kg): 6.67 ± 3.83^d
- Emetic Episodes (mean ± SD) ([8]; oral antiemetic 0.03 mg/kg): 3.33 ± 4.55^d
- Emetic Episodes (mean ± SD) ([8]; oral antiemetic 0.1 mg/kg): 1.00 ± 1.67^d
- Emetic Episodes (mean ± SD) [9, 16]: 10.17 ± 2.04 ^
- Emetic Episodes (mean ± SD) [9, 17]: 6.67 ± 4.13^
- Emetic Episodes (mean ± SD) [9, 18]: 1.67 ± 1.37^d
- Emetic Episodes (mean ± SD) [9, 19]: 0.83 ± 1.17^d
- potency relative to ondansetron [9, 20]: at least 10 times
- Emetic Episodes (mean ± SD) ([9]; oral antiemetic 0.003 mg/kg): 12.83 ± 6.68 ^
- Emetic Episodes (mean ± SD) ([9]; oral antiemetic 0.01 mg/kg): 6.83 ± 4.92^d
- Emetic Episodes (mean ± SD) ([9]; oral antiemetic 0.03 mg/kg): 0.33 ± 0.52^d
- Emetic Episodes (mean ± SD) ([9]; oral antiemetic 0.1 mg/kg): 0.00 ± 0.00^d
- Emetic Episodes (mean ± SD) (cisplatin-induced emesis [10]; palonosetron 100 μg/kg): 1.83 ± 1.60^b
- Emetic Episodes (mean ± SD) (cisplatin-induced emesis [10]; palonosetron 316 μg/kg): 4.50 ± 6.83^b
- Emetic Episodes (mean ± SD) (cisplatin-induced emesis [10]; palonosetron 1000 μg/kg): 5.67 ± 5.32^b

Source: patent US20110178118A1, “PALONOSETRON FOR THE TREATMENT OF CHEMOTHERAPY INDUCED EMESES” (priority 2002, published 2011)
